Results published in ChEMBL document CHEMBL5291721, “A preclinical secondary pharmacology resource illuminates target-adverse drug reaction associations of marketed drugs” (Nat Commun, 2023).

Assays:
[1] = target: T1, Alpha-2B adrenergic receptor (Homo sapiens, UniProt P18089)
T1 sequence (P18089 whole entry): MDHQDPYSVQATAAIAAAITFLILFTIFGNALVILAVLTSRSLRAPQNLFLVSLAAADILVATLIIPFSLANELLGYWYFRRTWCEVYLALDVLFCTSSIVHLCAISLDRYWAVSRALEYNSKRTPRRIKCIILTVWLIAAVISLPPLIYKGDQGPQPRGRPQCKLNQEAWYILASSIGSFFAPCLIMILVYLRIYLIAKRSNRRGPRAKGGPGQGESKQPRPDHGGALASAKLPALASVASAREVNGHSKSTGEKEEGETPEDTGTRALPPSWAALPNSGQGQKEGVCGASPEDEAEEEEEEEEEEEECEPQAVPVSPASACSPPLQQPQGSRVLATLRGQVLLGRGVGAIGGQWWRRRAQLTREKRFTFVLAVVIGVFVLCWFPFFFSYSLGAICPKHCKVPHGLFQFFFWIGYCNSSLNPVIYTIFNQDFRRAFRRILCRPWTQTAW

[2] = target: Voltage-dependent L-type calcium channel subunit alpha-1C (Rattus norvegicus, UniProt P22002); assay type: functional
Voltage-dependent L-type calcium channel subunit alpha-1C, sequence (P22002 whole entry): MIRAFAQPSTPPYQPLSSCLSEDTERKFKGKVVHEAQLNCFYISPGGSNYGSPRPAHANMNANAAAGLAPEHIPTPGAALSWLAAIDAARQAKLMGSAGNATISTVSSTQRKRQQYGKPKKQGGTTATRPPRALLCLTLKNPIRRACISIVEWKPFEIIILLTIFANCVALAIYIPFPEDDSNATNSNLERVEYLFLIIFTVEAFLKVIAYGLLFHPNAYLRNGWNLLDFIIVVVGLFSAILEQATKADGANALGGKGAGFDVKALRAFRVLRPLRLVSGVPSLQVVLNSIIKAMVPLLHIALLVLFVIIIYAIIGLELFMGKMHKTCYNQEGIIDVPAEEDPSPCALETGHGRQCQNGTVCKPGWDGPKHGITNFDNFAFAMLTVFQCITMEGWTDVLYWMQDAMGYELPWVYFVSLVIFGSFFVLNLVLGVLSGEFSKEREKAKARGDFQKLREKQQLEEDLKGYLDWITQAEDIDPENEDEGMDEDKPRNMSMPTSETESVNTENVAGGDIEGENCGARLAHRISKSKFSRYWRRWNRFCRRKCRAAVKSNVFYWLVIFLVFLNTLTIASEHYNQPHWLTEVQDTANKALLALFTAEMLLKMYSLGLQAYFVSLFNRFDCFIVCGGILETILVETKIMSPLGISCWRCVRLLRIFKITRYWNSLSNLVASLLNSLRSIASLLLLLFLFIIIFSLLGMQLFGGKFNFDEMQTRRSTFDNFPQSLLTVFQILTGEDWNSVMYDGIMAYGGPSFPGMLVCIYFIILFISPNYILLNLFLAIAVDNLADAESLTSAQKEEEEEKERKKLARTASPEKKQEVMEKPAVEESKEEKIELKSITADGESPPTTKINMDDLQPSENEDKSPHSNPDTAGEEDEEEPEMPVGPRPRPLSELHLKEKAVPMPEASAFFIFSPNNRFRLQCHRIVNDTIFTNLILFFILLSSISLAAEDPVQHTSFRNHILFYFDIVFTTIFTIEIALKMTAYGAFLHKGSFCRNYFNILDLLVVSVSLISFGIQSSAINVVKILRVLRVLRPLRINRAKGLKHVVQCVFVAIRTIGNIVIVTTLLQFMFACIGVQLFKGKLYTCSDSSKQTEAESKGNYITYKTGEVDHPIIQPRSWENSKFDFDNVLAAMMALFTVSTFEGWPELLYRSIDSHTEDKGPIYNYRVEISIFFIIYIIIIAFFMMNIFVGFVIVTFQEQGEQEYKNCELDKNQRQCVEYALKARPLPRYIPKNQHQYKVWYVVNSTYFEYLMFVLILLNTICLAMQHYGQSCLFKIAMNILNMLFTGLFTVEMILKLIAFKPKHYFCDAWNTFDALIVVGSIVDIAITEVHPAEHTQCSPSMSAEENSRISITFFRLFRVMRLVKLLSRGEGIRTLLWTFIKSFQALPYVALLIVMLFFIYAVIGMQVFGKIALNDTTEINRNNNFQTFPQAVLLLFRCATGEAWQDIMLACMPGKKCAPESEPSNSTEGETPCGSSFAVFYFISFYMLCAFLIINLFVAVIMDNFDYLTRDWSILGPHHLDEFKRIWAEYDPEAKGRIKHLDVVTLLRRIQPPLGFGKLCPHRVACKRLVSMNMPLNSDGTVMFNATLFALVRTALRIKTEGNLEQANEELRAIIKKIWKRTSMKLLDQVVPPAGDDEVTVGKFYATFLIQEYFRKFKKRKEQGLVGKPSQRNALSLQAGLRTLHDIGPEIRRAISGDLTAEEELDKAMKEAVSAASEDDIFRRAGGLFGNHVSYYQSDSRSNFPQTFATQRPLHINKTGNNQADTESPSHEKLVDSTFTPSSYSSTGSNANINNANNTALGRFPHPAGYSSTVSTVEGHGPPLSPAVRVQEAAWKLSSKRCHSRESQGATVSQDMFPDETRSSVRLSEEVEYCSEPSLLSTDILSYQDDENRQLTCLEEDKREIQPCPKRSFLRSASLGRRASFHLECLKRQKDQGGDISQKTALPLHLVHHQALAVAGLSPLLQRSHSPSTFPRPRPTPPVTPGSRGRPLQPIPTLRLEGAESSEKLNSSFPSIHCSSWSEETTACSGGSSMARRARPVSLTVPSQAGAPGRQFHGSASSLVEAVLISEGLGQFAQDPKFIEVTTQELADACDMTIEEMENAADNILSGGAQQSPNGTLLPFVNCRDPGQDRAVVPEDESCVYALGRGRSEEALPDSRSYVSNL

[3] = target: Gamma-aminobutyric acid receptor subunit alpha-1 (Rattus norvegicus, UniProt P62813)
Gamma-aminobutyric acid receptor subunit alpha-1, sequence (P62813 whole entry): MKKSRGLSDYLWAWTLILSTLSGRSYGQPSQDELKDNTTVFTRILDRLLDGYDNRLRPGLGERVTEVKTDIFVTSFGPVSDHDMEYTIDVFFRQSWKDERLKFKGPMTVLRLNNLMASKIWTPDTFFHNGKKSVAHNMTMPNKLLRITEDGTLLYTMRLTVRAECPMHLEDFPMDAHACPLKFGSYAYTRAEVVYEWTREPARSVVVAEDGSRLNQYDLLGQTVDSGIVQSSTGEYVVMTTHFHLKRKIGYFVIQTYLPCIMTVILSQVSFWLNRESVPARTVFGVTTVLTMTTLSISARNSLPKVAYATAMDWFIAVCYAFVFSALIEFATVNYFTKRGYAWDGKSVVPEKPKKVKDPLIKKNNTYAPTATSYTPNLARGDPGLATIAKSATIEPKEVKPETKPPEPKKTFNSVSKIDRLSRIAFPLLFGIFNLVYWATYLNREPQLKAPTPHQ

[4] = target: 5-hydroxytryptamine receptor 2A (Homo sapiens, UniProt P28223); assay type: functional, cell-based
5-hydroxytryptamine receptor 2A, sequence (P28223 whole entry): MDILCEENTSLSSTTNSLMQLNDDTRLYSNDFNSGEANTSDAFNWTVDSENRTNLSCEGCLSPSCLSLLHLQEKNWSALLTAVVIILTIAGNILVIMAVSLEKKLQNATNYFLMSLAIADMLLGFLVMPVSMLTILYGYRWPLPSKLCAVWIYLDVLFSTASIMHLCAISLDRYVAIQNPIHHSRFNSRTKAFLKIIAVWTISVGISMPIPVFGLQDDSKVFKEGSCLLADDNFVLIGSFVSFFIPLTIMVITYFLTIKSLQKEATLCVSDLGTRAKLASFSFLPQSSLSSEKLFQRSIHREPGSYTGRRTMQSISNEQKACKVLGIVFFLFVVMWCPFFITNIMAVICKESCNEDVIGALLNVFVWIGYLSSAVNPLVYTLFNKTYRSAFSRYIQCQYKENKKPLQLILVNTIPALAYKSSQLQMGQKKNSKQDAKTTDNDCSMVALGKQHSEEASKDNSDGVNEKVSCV

[5] = target: T2, Amine oxidase [flavin-containing] A (Homo sapiens, UniProt P21397); assay type: functional
T2 sequence (P21397 whole entry): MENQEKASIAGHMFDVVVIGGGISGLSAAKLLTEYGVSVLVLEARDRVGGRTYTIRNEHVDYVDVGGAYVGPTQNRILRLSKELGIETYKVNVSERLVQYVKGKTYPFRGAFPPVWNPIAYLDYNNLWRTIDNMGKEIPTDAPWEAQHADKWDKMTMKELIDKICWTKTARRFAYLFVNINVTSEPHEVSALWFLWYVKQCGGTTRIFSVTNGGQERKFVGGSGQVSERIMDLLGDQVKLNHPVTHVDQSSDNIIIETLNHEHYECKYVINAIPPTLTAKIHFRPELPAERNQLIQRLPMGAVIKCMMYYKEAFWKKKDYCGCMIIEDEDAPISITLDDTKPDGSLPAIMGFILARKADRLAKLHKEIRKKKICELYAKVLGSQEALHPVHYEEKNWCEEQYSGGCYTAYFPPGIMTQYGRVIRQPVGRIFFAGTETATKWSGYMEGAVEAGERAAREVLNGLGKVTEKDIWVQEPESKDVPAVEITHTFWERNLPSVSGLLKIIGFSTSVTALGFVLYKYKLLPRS

[6] = target: Sodium-dependent dopamine transporter (Homo sapiens, UniProt Q01959)
Sodium-dependent dopamine transporter, sequence (Q01959 whole entry): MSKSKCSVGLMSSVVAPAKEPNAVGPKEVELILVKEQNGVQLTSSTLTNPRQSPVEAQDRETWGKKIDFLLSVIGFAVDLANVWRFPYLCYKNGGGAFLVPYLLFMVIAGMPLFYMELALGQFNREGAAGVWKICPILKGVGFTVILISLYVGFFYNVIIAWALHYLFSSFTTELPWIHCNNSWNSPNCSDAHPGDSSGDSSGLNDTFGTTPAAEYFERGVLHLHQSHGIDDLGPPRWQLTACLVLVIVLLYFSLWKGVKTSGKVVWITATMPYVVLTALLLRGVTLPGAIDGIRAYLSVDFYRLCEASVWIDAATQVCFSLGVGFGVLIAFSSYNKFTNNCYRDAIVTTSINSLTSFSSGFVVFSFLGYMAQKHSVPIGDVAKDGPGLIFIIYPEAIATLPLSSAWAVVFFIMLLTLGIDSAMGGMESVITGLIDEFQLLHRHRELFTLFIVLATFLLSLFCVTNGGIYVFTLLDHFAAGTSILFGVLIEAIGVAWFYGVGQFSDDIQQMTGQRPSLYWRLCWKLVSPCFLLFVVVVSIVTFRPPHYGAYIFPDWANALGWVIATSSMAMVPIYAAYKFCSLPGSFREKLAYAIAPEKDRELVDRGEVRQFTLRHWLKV

Progesterone receptor = target: T3, Progesterone receptor (Homo sapiens, UniProt P06401); assay type: functional
T3 sequence (P06401 whole entry): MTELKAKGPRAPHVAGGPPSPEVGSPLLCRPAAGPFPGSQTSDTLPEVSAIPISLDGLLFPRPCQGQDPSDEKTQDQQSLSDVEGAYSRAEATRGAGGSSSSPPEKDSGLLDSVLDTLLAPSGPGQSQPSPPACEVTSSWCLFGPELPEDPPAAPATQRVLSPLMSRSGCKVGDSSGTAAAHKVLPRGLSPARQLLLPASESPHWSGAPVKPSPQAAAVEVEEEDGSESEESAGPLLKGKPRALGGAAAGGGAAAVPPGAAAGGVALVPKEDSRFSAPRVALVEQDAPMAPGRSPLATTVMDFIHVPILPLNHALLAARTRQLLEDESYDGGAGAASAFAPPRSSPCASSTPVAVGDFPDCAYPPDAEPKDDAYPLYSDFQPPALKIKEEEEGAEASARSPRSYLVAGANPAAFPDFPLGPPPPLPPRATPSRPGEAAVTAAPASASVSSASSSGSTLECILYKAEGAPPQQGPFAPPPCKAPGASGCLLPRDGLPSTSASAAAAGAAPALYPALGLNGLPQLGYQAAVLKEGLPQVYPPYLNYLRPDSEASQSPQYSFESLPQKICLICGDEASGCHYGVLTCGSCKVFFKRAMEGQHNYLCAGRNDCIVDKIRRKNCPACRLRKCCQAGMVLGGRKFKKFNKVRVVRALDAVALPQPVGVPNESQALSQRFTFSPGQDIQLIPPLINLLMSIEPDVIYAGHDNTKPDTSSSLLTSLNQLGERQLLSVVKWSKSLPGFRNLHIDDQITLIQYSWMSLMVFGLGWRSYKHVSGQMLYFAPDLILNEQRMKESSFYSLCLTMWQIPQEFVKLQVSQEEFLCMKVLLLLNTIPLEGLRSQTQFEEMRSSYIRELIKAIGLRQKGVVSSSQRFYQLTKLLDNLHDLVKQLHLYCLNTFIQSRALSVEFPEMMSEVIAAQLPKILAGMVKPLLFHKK
Note: assay procedure not described here.

COC(=O)N[C@H](C(=O)N1CCC[C@H]1c1nc(-c2ccc(-c3ccc(-c4c[nH]c([C@@H]5CCCN5C(=O)[C@@H](NC(=O)OC)C(C)C)n4)cc3)cc2)c[nH]1)C(C)C
AC50 [1]: > 30 µM
AC50 [2]: > 30 µM
AC50 [3]: > 30 µM
AC50 [4]: > 30 µM

O=C1c2c(O)c(=O)ccn2N([C@@H]2c3ccccc3SCc3c2ccc(F)c3F)[C@@H]2COCCN12 [BALOXAVIR]
AC50 [5]: > 30 µM
AC50 [6]: > 30 µM

C(=N\NC1=NCCN1)/c1c2ccccc2c(/C=N/NC2=NCCN2)c2ccccc12 [BISANTRENE]
AC50 [5]: > 30 µM
AC50 [6]: 9.57 µM

CCO/N=C(\C(=O)N[C@@H]1C(=O)N2C(C(=O)[O-])=C(Sc3nc(-c4cc[n+](C)cc4)cs3)CS[C@H]12)c1nsc(N)n1 [CEFTAROLINE]
AC50 [5]: > 30 µM
AC50 [6]: > 30 µM

Cc1cc(O)cc(C)c1Cl [CHLOROXYLENOL]
AC50 [5]: > 30 µM
AC50 [6]: > 30 µM

CN(C)CCCN1c2ccccc2CCc2ccc(Cl)cc21 [CLOMIPRAMINE]
AC50 [2]: > 10 µM
AC50 [3]: > 10 µM
AC50 [5]: > 30 µM
AC50 [6]: 4.82 µM

C[N+](C)(C)CCCCCCCCCC[N+](C)(C)C [DECAMETHONIUM]
AC50 [5]: > 30 µM
AC50 [6]: > 30 µM

O=C(O)c1cc(-c2ccc(F)cc2F)ccc1O [DIFLUNISAL]
AC50 [2]: > 10 µM
AC50 [3]: > 10 µM
AC50 (Progesterone receptor): > 10 µM

O=C1c2ccccc2C(=O)C1C(=O)C(c1ccccc1)c1ccccc1 [DIPHENADIONE]
AC50 [5]: > 30 µM
AC50 [6]: > 30 µM

CCC(=O)O[C@H]1[C@H](O[C@@H]2[C@@H](C)[C@H](O[C@H]3C[C@@](C)(OC)[C@@H](O)[C@H](C)O3)[C@@H](C)C(=O)O[C@H](CC)[C@@](C)(O)[C@H](O)[C@@H](C)C(=O)[C@H](C)C[C@@]2(C)O)O[C@H](C)C[C@@H]1N(C)C [ERYTHROMYCIN PROPIONATE]
AC50 [5]: > 30 µM
AC50 [6]: 29.1 µM

CCOC(=O)c1ccc(O)cc1 [ETHYLPARABEN]
AC50 [5]: > 30 µM
AC50 [6]: > 30 µM

O=C1[C@H](CC[C@H](O)c2ccc(F)cc2)[C@@H](c2ccc(O)cc2)N1c1ccc(F)cc1 [EZETIMIBE]
AC50 [5]: > 30 µM
AC50 [6]: 19.5 µM

O=C(COc1ccc(Cl)cc1)N1CCN(Cc2ccc3c(c2)OCO3)CC1 [FIPEXIDE]
AC50 [5]: > 30 µM
AC50 [6]: 12.9 µM

Cc1c(-c2ccccc2)oc2c(C(=O)OCCN3CCCCC3)cccc2c1=O [FLAVOXATE]
AC50 [5]: > 30 µM
AC50 [6]: > 30 µM

CCC(=O)c1c(O)cc(O)cc1O [FLOPROPIONE]
AC50 [5]: > 30 µM
AC50 [6]: > 30 µM

CC1(C)O[C@@H]2C[C@H]3[C@@H]4C[C@H](F)C5=CC(=O)CC[C@]5(C)[C@H]4[C@@H](O)C[C@]3(C)[C@]2(C(=O)CO)O1 [FLURANDRENOLIDE]
AC50 [5]: > 30 µM
AC50 [6]: > 30 µM

CC(C)C(=O)Nc1ccc([N+](=O)[O-])c(C(F)(F)F)c1 [FLUTAMIDE]
AC50 [2]: > 10 µM
AC50 [3]: > 10 µM
AC50 [5]: > 30 µM
AC50 (Progesterone receptor): > 10 µM
AC50 [6]: > 30 µM

NC[C@H]1O[C@H](O[C@H]2[C@H](O)[C@@H](O[C@H]3O[C@H](CO)[C@@H](O)[C@H](N)[C@H]3O)[C@H](N)C[C@@H]2N)[C@H](O)[C@@H](O)[C@@H]1O [KANAMYCIN]
AC50 [2]: > 10 µM
AC50 [3]: > 10 µM
AC50 (Progesterone receptor): > 10 µM

C#C[C@]1(O)CC[C@H]2[C@@H]3CCC4=CC(=O)CC[C@@H]4[C@H]3CC[C@@]21CC [LEVONORGESTREL]
AC50 [5]: > 30 µM
AC50 [6]: > 30 µM

OC[C@@H](O)[C@@H](O)[C@H](O)[C@H](O)CO [MANNITOL]
AC50 [5]: > 30 µM
AC50 [6]: > 30 µM

CN1CCCC(CN2c3ccccc3Sc3ccccc32)C1 (stereo unspecified) [MEPAZINE]
AC50 [5]: > 30 µM
AC50 [6]: 27.7 µM

Sc1ncnc2nc[nH]c12 [MERCAPTOPURINE ANHYDROUS]
AC50 [5]: > 30 µM
AC50 [6]: > 30 µM

C[N+]1(C)[C@@H]2C[C@@H](OC(=O)[C@H](CO)c3ccccc3)C[C@H]1[C@@H]1O[C@@H]12 [METHSCOPOLAMINE]
AC50 [5]: > 30 µM
AC50 [6]: > 30 µM

C[C@H]1C[C@@H]2[C@H]([C@@H](O)C[C@@]3(C)[C@H]2CC[C@]3(O)C(=O)CO)[C@@]2(C)C=CC(=O)C=C12 [METHYLPREDNISOLONE]
AC50 [2]: > 10 µM
AC50 [3]: > 10 µM

CC(=O)Oc1c(C)cc(OCC(O)CNC(C)C)c(C)c1C (stereo unspecified) [METIPRANOLOL]
AC50 [5]: > 30 µM
AC50 [6]: > 30 µM

CC(C)(C(=O)c1cccnc1)c1cccnc1 [METYRAPONE]
AC50 [2]: > 10 µM
AC50 [3]: > 10 µM
AC50 (Progesterone receptor): > 10 µM

O=C1CC[C@@]2(O)[C@H]3Cc4ccc(O)c5c4[C@@]2(CCN3CC2CC2)[C@H]1O5 [NALTREXONE]
AC50 [5]: > 30 µM
AC50 [6]: > 30 µM

COC(=O)C1=C(C)NC(C)=C(C(=O)OCC(C)C)C1c1ccccc1[N+](=O)[O-] (stereo unspecified) [NISOLDIPINE]
AC50 [2]: 4.62 µM
AC50 [3]: > 10 µM
AC50 (Progesterone receptor): 4.9 µM

NC1=NC(=O)C(c2ccccc2)O1 (stereo unspecified) [PEMOLINE]
AC50 [2]: > 10 µM
AC50 [3]: > 10 µM

CC(N/C(=N\C#N)Nc1ccncc1)C(C)(C)C (stereo unspecified) [PINACIDIL ANHYDROUS]
AC50 [5]: > 30 µM
AC50 [6]: > 30 µM

CC(O)CO (stereo unspecified) [PROPYLENE GLYCOL]
AC50 [5]: > 30 µM
AC50 [6]: > 30 µM

CN(C)C(=O)Oc1ccc[n+](C)c1 [PYRIDOSTIGMINE]
AC50 [5]: > 30 µM
AC50 [6]: > 30 µM

Cc1cc2c(cc1CC(=O)c1sccc1S(=O)(=O)Nc1onc(C)c1Cl)OCO2 [SITAXENTAN]
AC50 [5]: > 30 µM
AC50 [6]: > 30 µM

CC(C)OC(=O)[C@H](C)N[P@](=O)(OC[C@H]1O[C@@H](n2ccc(=O)[nH]c2=O)[C@](C)(F)[C@@H]1O)Oc1ccccc1 [SOFOSBUVIR]
AC50 [5]: > 30 µM
AC50 [6]: > 30 µM

CNC(=O)c1cc(Oc2ccc(NC(=O)Nc3ccc(Cl)c(C(F)(F)F)c3)cc2)ccn1 [SORAFENIB]
AC50 [1]: > 30 µM
AC50 [2]: > 30 µM
AC50 [3]: > 30 µM
AC50 (Progesterone receptor): > 30 µM

CS(=O)(=O)c1ccc([C@@H](O)[C@@H](CO)NC(=O)C(Cl)Cl)cc1 [THIAMPHENICOL]
AC50 [2]: > 30 µM
AC50 [3]: > 30 µM
AC50 [5]: > 30 µM
AC50 (Progesterone receptor): > 30 µM
AC50 [6]: > 30 µM

Cc1ccc(O)c2ncccc12 [TILIQUINOL]
AC50 [5]: > 30 µM
AC50 [6]: > 30 µM

NC[C@H]1CC[C@H](C(=O)O)CC1 [TRANEXAMIC ACID]
AC50 [2]: > 10 µM
AC50 [3]: > 10 µM
AC50 (Progesterone receptor): > 10 µM

CC(=O)OC[C@H]1O[C@@H](n2ccc(=O)[nH]c2=O)[C@H](OC(C)=O)[C@@H]1OC(C)=O [URIDINE TRIACETATE]
AC50 [5]: > 30 µM
AC50 [6]: > 30 µM

CCCS(=O)(=O)Nc1ccc(F)c(C(=O)c2c[nH]c3ncc(-c4ccc(Cl)cc4)cc23)c1F [VEMURAFENIB]
AC50 [1]: > 30 µM
AC50 [2]: > 30 µM
AC50 [3]: > 30 µM
AC50 [4]: > 30 µM

CCOC(=O)N[C@@H]1CC[C@@H]2[C@@H](C1)C[C@H]1C(=O)O[C@H](C)[C@H]1[C@H]2/C=C/c1ccc(-c2cccc(F)c2)cn1 [VORAPAXAR]
AC50 [5]: > 30 µM
AC50 [6]: > 30 µM
